Measurements as given in PMC5218480 (PLoS ONE, 2017).

Tested on: MV-4-11 cells
Test: Gene expression microarray analysis (Affymetrix PrimeView) and GSEA
Assay type: cell-based, human
Design: RFU PODN (11730768_x_at) / Fold change /veh PODN (11730768_x_at) / RFU LINC00158 (11744669_a_at) / Fold change /veh LINC00158 (11744669_a_at) / RFU DUSP10 (11751237_a_at) / Fold change /veh DUSP10 (11751237_a_at) / RFU ID3 (11757404_x_at) / Fold change /veh ID3 (11757404_x_at) / RFU PLEKHG5 (11737974_s_at) / Fold change /veh PLEKHG5 (11737974_s_at) / RFU LRRC4B (11730491_at) / Fold change /veh LRRC4B (11730491_at) / RFU GIMAP4 (11747438_a_at) / Fold change /veh GIMAP4 (11747438_a_at) / RFU KRT8 (11758183_x_at) / Fold change /veh KRT8 (11758183_x_at) / RFU CNN1 (11734310_a_at) / Fold change /veh CNN1 (11734310_a_at) / RFU VPS37D (11726825_at) / Fold change /veh VPS37D (11726825_at) / RFU C10orf10 (11716522_x_at) / Fold change /veh C10orf10 (11716522_x_at) / RFU KIR2DL2 /// KIR2DL4 /// KIR2DL5A /// KIR2DL5B /// KIR2DS1 /// KIR2DS2 /// KIR2DS3 /// KIR2DS4 /// KIR3DL3 /// KIR3DL3 /// KIR3DS1 (11738374_at) / Fold change /veh KIR2DL2 /// KIR2DL4 /// KIR2DL5A /// KIR2DL5B /// KIR2DS1 /// KIR2DS2 /// KIR2DS3 /// KIR2DS4 /// KIR3DL3 /// KIR3DL3 /// KIR3DS1 (11738374_at) / RFU C1QL1 (11718748_at) / Fold change /veh C1QL1 (11718748_at) / RFU TMPRSS4 (11747572_a_at) / Fold change /veh TMPRSS4 (11747572_a_at) / RFU HAMP (11756126_x_at) / Fold change /veh HAMP (11756126_x_at) / RFU RNFT2 (11725882_a_at) / Fold change /veh RNFT2 (11725882_a_at) / RFU NR4A2 (11747474_a_at) / Fold change /veh NR4A2 (11747474_a_at) / RFU ABCC12 (11746883_a_at) / Fold change /veh ABCC12 (11746883_a_at) / RFU TMEM136 (11760407_x_at) / Fold change /veh TMEM136 (11760407_x_at) / RFU CLDN22 /// WWC2 (11732394_at) / Fold change /veh CLDN22 /// WWC2 (11732394_at) / RFU HLA-DPB1 (11760878_x_at) / Fold change /veh HLA-DPB1 (11760878_x_at) / RFU SPINT1 (11716480_a_at) / Fold change /veh SPINT1 (11716480_a_at) / RFU GAP43 (11754022_s_at) / Fold change /veh GAP43 (11754022_s_at) / RFU A4GNT (11735810_at) / Fold change /veh A4GNT (11735810_at) / RFU PRB3 (11715151_x_at) / Fold change /veh PRB3 (11715151_x_at) / RFU TUBB4B (11761932_at) / Fold change /veh TUBB4B (11761932_at) / RFU CAPN14 (11732068_a_at) / Fold change /veh CAPN14 (11732068_a_at) / RFU TMCC2 (11721928_a_at) / Fold change /veh TMCC2 (11721928_a_at) / RFU IRGQ (11745062_a_at) / Fold change /veh IRGQ (11745062_a_at) / RFU FAM174B (11720279_a_at) / Fold change /veh FAM174B (11720279_a_at) / RFU TMPRSS4 (11748680_a_at) / Fold change /veh TMPRSS4 (11748680_a_at) / RFU FAM212B (11763350_a_at) / Fold change /veh FAM212B (11763350_a_at) / RFU PLEKHG5 (11743358_a_at) / Fold change /veh PLEKHG5 (11743358_a_at) / RFU ZSCAN30 (11745921_a_at) / Fold change /veh ZSCAN30 (11745921_a_at) / RFU CMKLR1 (11741424_a_at) / Fold change /veh CMKLR1 (11741424_a_at) / RFU LOC101060620 /// MAPK8IP1 (11723275_at) / Fold change /veh LOC101060620 /// MAPK8IP1 (11723275_at) / RFU SPTSSB (11747773_x_at) / Fold change /veh SPTSSB (11747773_x_at) / RFU PRSS12 (11739890_at) / Fold change /veh PRSS12 (11739890_at) / RFU BIN1 (11741810_x_at) / Fold change /veh BIN1 (11741810_x_at) / RFU WNT11 (11732464_a_at) / Fold change /veh WNT11 (11732464_a_at) / RFU C10orf10 (11716521_a_at) / Fold change /veh C10orf10 (11716521_a_at) / RFU C5orf56 (11738089_at) / Fold change /veh C5orf56 (11738089_at) / RFU CYB561 (11721691_x_at) / Fold change /veh CYB561 (11721691_x_at) / RFU ANKRD19P (11752326_a_at) / Fold change /veh ANKRD19P (11752326_a_at) / RFU OR2T12 /// OR2T33 /// OR2T8 (11738714_s_at) / Fold change /veh OR2T12 /// OR2T33 /// OR2T8 (11738714_s_at) / RFU VCAN (11748164_a_at) / Fold change /veh VCAN (11748164_a_at) / RFU JSRP1 (11732532_at) / Fold change /veh JSRP1 (11732532_at) / RFU KRTAP10-11 (11738290_x_at) / Fold change /veh KRTAP10-11 (11738290_x_at) / RFU MYO3A (11730013_a_at) / Fold change /veh MYO3A (11730013_a_at) / RFU EBF3 (11725865_a_at) / Fold change /veh EBF3 (11725865_a_at) / RFU CAMK2N1 (11719241_x_at) / Fold change /veh CAMK2N1 (11719241_x_at) / RFU C5orf56 (11738088_a_at) / Fold change /veh C5orf56 (11738088_a_at) / RFU OLFML3 (11715873_a_at) / Fold change /veh OLFML3 (11715873_a_at) / RFU LOC100653217 /// NTM (11731650_a_at) / Fold change /veh LOC100653217 /// NTM (11731650_a_at) / RFU MAPK11 (11762145_a_at) / Fold change /veh MAPK11 (11762145_a_at) / RFU FIZ1 (11724087_x_at) / Fold change /veh FIZ1 (11724087_x_at) / RFU OASL (11726364_x_at) / Fold change /veh OASL (11726364_x_at) / RFU SOX15 (11748057_x_at) / Fold change /veh SOX15 (11748057_x_at) / RFU CD79A (11719716_a_at) / Fold change /veh CD79A (11719716_a_at) / RFU HIST1H1D (11736915_at) / Fold change /veh HIST1H1D (11736915_at) / RFU CASKIN2 (11723855_a_at) / Fold change /veh CASKIN2 (11723855_a_at) / RFU LOC730098 (11760151_x_at) / Fold change /veh LOC730098 (11760151_x_at) / RFU OR4N2 (11742367_at) / Fold change /veh OR4N2 (11742367_at) / RFU PRRT2 (11749266_a_at) / Fold change /veh PRRT2 (11749266_a_at) / RFU SNX32 (11753110_a_at) / Fold change /veh SNX32 (11753110_a_at) / RFU CDHR5 (11726645_a_at) / Fold change /veh CDHR5 (11726645_a_at) / RFU RCAN1 (11760418_a_at) / Fold change /veh RCAN1 (11760418_a_at) / RFU FAM167A (11723789_a_at) / Fold change /veh FAM167A (11723789_a_at) / RFU FAM26E (11764081_at) / Fold change /veh FAM26E (11764081_at) / RFU ISYNA1 (11749810_s_at) / Fold change /veh ISYNA1 (11749810_s_at) / RFU ACY1 (11761880_at) / Fold change /veh ACY1 (11761880_at) / RFU 11764098_at / Fold change /veh 11764098_at / RFU SAMD14 (11745864_x_at) / Fold change /veh SAMD14 (11745864_x_at) / RFU NPB (11741838_a_at) / Fold change /veh NPB (11741838_a_at) / RFU TMPRSS6 (11731388_a_at) / Fold change /veh TMPRSS6 (11731388_a_at) / RFU KRTAP10-2 (11738614_at) / Fold change /veh KRTAP10-2 (11738614_at) / RFU ARHGAP8 /// PRR5-ARHGAP8 (11727945_x_at) / Fold change /veh ARHGAP8 /// PRR5-ARHGAP8 (11727945_x_at) / RFU KRTAP5-7 /// NADSYN1 (11734609_at) / Fold change /veh KRTAP5-7 /// NADSYN1 (11734609_at) / RFU RASL12 (11751679_a_at) / Fold change /veh RASL12 (11751679_a_at) / RFU CDKN2B (11736163_a_at) / Fold change /veh CDKN2B (11736163_a_at) / RFU PRF1 (11729649_at) / Fold change /veh PRF1 (11729649_at) / RFU, ZNF638 /// ZNF638-IT1 / Fold change vs veh, ZNF638 /// ZNF638-IT1 / RFU, PANK3 / Fold change vs veh, PANK3 / RFU, SH3YL1 / Fold change vs veh, SH3YL1 / RFU, ZEB2 / Fold change vs veh, ZEB2 / RFU, NRIP1 / Fold change vs veh, NRIP1 / RFU, PTTG1IP / Fold change vs veh, PTTG1IP / RFU, CAPN2 / Fold change vs veh, CAPN2 / RFU, MED14 / Fold change vs veh, MED14 / RFU, SNORA58 / Fold change vs veh, SNORA58 / RFU, C1orf63 / Fold change vs veh, C1orf63 / RFU, LRRFIP1 / Fold change vs veh, LRRFIP1 / RFU, NDUFAF7 / Fold change vs veh, NDUFAF7 / RFU, SLC12A2 / Fold change vs veh, SLC12A2 / RFU, IBTK / Fold change vs veh, IBTK / RFU, ESF1 / Fold change vs veh, ESF1 / Fold change vs veh, TMEM50B / RFU, TAOK1 / Fold change vs veh, TAOK1 / RFU, ACBD3 / Fold change vs veh, ACBD3 / RFU, TMA16 / Fold change vs veh, TMA16 / RFU, RWDD3 / Fold change vs veh, RWDD3 / RFU, BCAT1 / Fold change vs veh, BCAT1 / RFU, EDEM3 / Fold change vs veh, EDEM3 / RFU, TMEM33 / Fold change vs veh, TMEM33 / RFU, WDR75 / Fold change vs veh, WDR75 / RFU, AHCTF1 / Fold change vs veh, AHCTF1 / RFU, TFRC / Fold change vs veh, TFRC / RFU, ZDHHC17 / Fold change vs veh, ZDHHC17 / RFU, NOM1 / Fold change vs veh, NOM1 / RFU, ARL8B / Fold change vs veh, ARL8B / RFU, ZBTB11 / Fold change vs veh, ZBTB11 / RFU, TAMM41 / Fold change vs veh, TAMM41 / RFU, KIAA1704 /// LOC100996395 / Fold change vs veh, KIAA1704 /// LOC100996395 / RFU, ING1 / Fold change vs veh, ING1 / RFU, TRMT61B / Fold change vs veh, TRMT61B / RFU, FUBP3 / Fold change vs veh, FUBP3 / RFU, TP53 / Fold change vs veh, TP53 / RFU, TNKS2 / Fold change vs veh, TNKS2 / RFU, ZFP14 / Fold change vs veh, ZFP14 / RFU, ACTR2 / Fold change vs veh, ACTR2 / RFU, PPP3R1 / Fold change vs veh, PPP3R1 / RFU, PIK3R1 / Fold change vs veh, PIK3R1 / RFU, HNRNPA1 / Fold change vs veh, HNRNPA1 / RFU, RNF170 / Fold change vs veh, RNF170 / RFU, ZNF28 / Fold change vs veh, ZNF28 / RFU, RNGTT / Fold change vs veh, RNGTT / RFU, OGT / Fold change vs veh, OGT / RFU, BRD1 / Fold change vs veh, BRD1 / RFU, MARS / Fold change vs veh, MARS / RFU, ZNF655 / Fold change vs veh, ZNF655 / RFU, FAHD1 / Fold change vs veh, FAHD1 / RFU, BDP1 / Fold change vs veh, BDP1 / RFU, LRRCC1 / Fold change vs veh, LRRCC1 / RFU, ARID1A / Fold change vs veh, ARID1A / RFU, ZNF146 / Fold change vs veh, ZNF146 / RFU, ZNF330 / Fold change vs veh, ZNF330 / RFU, GPN3 / Fold change vs veh, GPN3 / RFU, C9orf123 / Fold change vs veh, C9orf123 / RFU, N4BP2L2 / Fold change vs veh, N4BP2L2 / RFU, ARFIP1 / Fold change vs veh, ARFIP1 / RFU, FAM179B / Fold change vs veh, FAM179B / RFU, BCL10 / Fold change vs veh, BCL10 / RFU, UHRF1BP1L / Fold change vs veh, UHRF1BP1L / RFU, BET1 / Fold change vs veh, BET1 / RFU, CNOT2 / Fold change vs veh, CNOT2 / RFU, ZNF268 / Fold change vs veh, ZNF268 / Fold change vs veh, ZNF507 / RFU, DGCR2 / Fold change vs veh, DGCR2 / RFU, WDSUB1 / Fold change vs veh, WDSUB1 / Fold change vs veh, HSP90B1 /// MIR3652 / RFU, ADSS / Fold change vs veh, ADSS / RFU, GK / Fold change vs veh, GK / RFU, ZNF148 / Fold change vs veh, ZNF148 / RFU, TAF9 / Fold change vs veh, TAF9 / RFU, SLC1A5 / Fold change vs veh, SLC1A5 / RFU, SLMO2 / Fold change vs veh, SLMO2 / RFU, ABCC4 / Fold change vs veh, ABCC4 / RFU, LOC101060439 /// RAP1B / Fold change vs veh, LOC101060439 /// RAP1B / RFU, RFX7 / Fold change vs veh, RFX7 / RFU, GTPBP10 / Fold change vs veh, GTPBP10 / RFU, CNEP1R1 / Fold change vs veh, CNEP1R1 / RFU, BIVM-ERCC5 /// ERCC5 / Fold change vs veh, BIVM-ERCC5 /// ERCC5 / RFU, ILF3 / Fold change vs veh, ILF3 / RFU 11762660_at / Fold change /veh 11762660_at / RFU VCAN (11757783_s_at) / Fold change /veh VCAN (11757783_s_at) / RFU DDX43 (11728927_at) / Fold change /veh DDX43 (11728927_at) / RFU KRT8 (11758188_x_at) / Fold change /veh KRT8 (11758188_x_at) / RFU NKD1 (11759106_at) / Fold change /veh NKD1 (11759106_at) / RFU SRD5A1 (11742802_a_at) / Fold change /veh SRD5A1 (11742802_a_at) / RFU TPSAB1 /// TPSB2 (11721975_s_at) / Fold change /veh TPSAB1 /// TPSB2 (11721975_s_at) / RFU GSTM3 (11746129_a_at) / Fold change /veh GSTM3 (11746129_a_at) / RFU IL23R (11737362_x_at) / Fold change /veh IL23R (11737362_x_at) / RFU TMEM51 (11727254_a_at) / Fold change /veh TMEM51 (11727254_a_at) / RFU PIWIL2 (11732686_x_at) / Fold change /veh PIWIL2 (11732686_x_at) / RFU ORM1 (11744905_x_at) / Fold change /veh ORM1 (11744905_x_at) / RFU CCDC152 (11743942_at) / Fold change /veh CCDC152 (11743942_at) / RFU ECM1 (11717891_a_at) / Fold change /veh ECM1 (11717891_a_at) / RFU IL23R (11748794_a_at) / Fold change /veh IL23R (11748794_a_at) / RFU TNFAIP8L3 (11732012_x_at) / Fold change /veh TNFAIP8L3 (11732012_x_at) / RFU MBOAT4 (11741988_at) / Fold change /veh MBOAT4 (11741988_at) / RFU 11764193_at / Fold change /veh 11764193_at / RFU TMEM53 (11763286_at) / Fold change /veh TMEM53 (11763286_at) / RFU MAGEB2 (11727129_at) / Fold change /veh MAGEB2 (11727129_at) / RFU TMEM200A (11744735_a_at) / Fold change /veh TMEM200A (11744735_a_at) / RFU CCDC152 (11751479_a_at) / Fold change /veh CCDC152 (11751479_a_at) / RFU FAM211A (11726209_a_at) / Fold change /veh FAM211A (11726209_a_at) / RFU RGS16 (11746705_a_at) / Fold change /veh RGS16 (11746705_a_at) / RFU VCAN (11755009_s_at) / Fold change /veh VCAN (11755009_s_at) / RFU RHOB (11743442_s_at) / Fold change /veh RHOB (11743442_s_at) / RFU RGS16 (11720943_a_at) / Fold change /veh RGS16 (11720943_a_at) / RFU RGS16 (11720944_at) / Fold change /veh RGS16 (11720944_at) / RFU, VPS4B / Fold change vs veh, VPS4B / RFU, CREB1 / Fold change vs veh, CREB1 / RFU, DNAJC13 / Fold change vs veh, DNAJC13 / RFU, GNAQ / Fold change vs veh, GNAQ / RFU, CDK5R1 / Fold change vs veh, CDK5R1 / RFU, ZRANB3 / Fold change vs veh, ZRANB3 / RFU, CUL4A / Fold change vs veh, CUL4A / RFU, CCNY / Fold change vs veh, CCNY / RFU, UFL1 / Fold change vs veh, UFL1 / RFU, COG3 / Fold change vs veh, COG3 / RFU, DIAPH2 / Fold change vs veh, DIAPH2 / RFU, SKA2 / Fold change vs veh, SKA2 / RFU, AFF3 / Fold change vs veh, AFF3 / RFU, LMF1 / Fold change vs veh, LMF1 / RFU, IPO11 / Fold change vs veh, IPO11 / RFU, DFFB / Fold change vs veh, DFFB / RFU, FOXP1 / Fold change vs veh, FOXP1 / RFU, CARD8 / Fold change vs veh, CARD8 / RFU, STRN3 / Fold change vs veh, STRN3 / RFU, ADK / Fold change vs veh, ADK / RFU, RASSF2 / Fold change vs veh, RASSF2 / RFU, WIPF1 / Fold change vs veh, WIPF1 / RFU, LARP1B / Fold change vs veh, LARP1B / RFU, RASA1 / Fold change vs veh, RASA1 / RFU, RB1 / Fold change vs veh, RB1 / RFU, PPFIA1 / Fold change vs veh, PPFIA1 / RFU, MAT2A / Fold change vs veh, MAT2A / RFU, CCT5 / Fold change vs veh, CCT5 / RFU, WDR92 / Fold change vs veh, WDR92 / RFU, CUX1 / Fold change vs veh, CUX1 / RFU, TTC7A / Fold change vs veh, TTC7A / RFU, TMEM135 / Fold change vs veh, TMEM135 / RFU, DEPTOR / Fold change vs veh, DEPTOR / RFU, CPM / Fold change vs veh, CPM / RFU, DNAJB6 / Fold change vs veh, DNAJB6 / RFU, CACNA2D3 / Fold change vs veh, CACNA2D3 / RFU, DTX4 / Fold change vs veh, DTX4 / RFU, TFCP2 / Fold change vs veh, TFCP2 / RFU, GMCL1 /// GMCL1P1 / Fold change vs veh, GMCL1 /// GMCL1P1 / RFU, AEBP2 / Fold change vs veh, AEBP2 / RFU, SNHG1 /// SNORD22 /// SNORD25 /// SNORD26 /// SNORD27 /// SNORD28 /// SNORD29 /// SNORD31 / Fold change vs veh, SNHG1 /// SNORD22 /// SNORD25 /// SNORD26 /// SNORD27 /// SNORD28 /// SNORD29 /// SNORD31 / Fold change (Aza/veh), C12orf56 (ProbeSet 11735607_a_at) / Fold change (ACY-1035/veh), C12orf56 (ProbeSet 11735607_a_at) / Fold change (Aza/veh), FGFR1OP (ProbeSet 11751329_s_at) / Fold change (ACY-1035/veh), FGFR1OP (ProbeSet 11751329_s_at) / Fold change (Aza/veh), VPS36 (ProbeSet 11739960_a_at) / Fold change (ACY-1035/veh), VPS36 (ProbeSet 11739960_a_at) / RFU SYPL1 (11715823_x_at) / Fold change /veh SYPL1 (11715823_x_at) / RFU IGFBP7 (11715501_s_at) / Fold change /veh IGFBP7 (11715501_s_at) / RFU REEP3 (11722064_at) / Fold change /veh REEP3 (11722064_at) / RFU IGLL1 (11728026_x_at) / Fold change /veh IGLL1 (11728026_x_at): dose or concentration left out as unconfirmed
Details: MV-4-11 cells, 48 hours

**Q.** Which “RFU TMEM51 (11727254_a_at)” value does the source give for `Nc1ncn([C@@H]2O[C@H](CO)[C@@H](O)[C@H]2O)c(=O)n1` [azacitidine] here?
**A.** The value was 17.35 RFU.
